Measurements: doi:10.1101/2022.12.01.518659v1 (biorxiv, 2022)
Counter-ions that a name gives are not always drawn.

Target: Atx3 13Q (Homo sapiens, UniProt P54252, OF/POLYQ/Q/TRACT)
Experiment: ThT fluorescence aggregation assay
Type: biochemical

Sequence of Atx3 13Q (P54252 whole entry, change not shown): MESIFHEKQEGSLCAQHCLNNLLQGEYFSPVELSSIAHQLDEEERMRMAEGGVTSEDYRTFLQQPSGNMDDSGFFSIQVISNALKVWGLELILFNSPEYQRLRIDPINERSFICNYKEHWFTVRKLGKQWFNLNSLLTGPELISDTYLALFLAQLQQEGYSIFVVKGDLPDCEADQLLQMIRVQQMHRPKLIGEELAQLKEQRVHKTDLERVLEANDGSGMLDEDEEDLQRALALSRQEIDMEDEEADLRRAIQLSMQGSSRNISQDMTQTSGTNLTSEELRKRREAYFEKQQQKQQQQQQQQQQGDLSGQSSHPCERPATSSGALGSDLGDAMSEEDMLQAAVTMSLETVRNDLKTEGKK

| IC50 | Compound |
| --- | --- |
| 0.12 µM | O=C(O)CN(CCN(CC(=O)O)CC(=O)O)CCN(CC(=O)O)CC(=O)O [pentetic acid] |
| 0.11 µM | NCCc1ccc(O)c(O)c1 [dopamine hydrochloride] |
| 0.08 µM | Cc1cc(C2CCCCC2)n(O)c(=O)c1 [ciclopirox ethanolamine] |
| 0.02 µM | Cc1ccc(C(=O)c2cc(O)c(O)c([N+](=O)[O-])c2)cc1 [tolcapone] |
